Values of other authors, collected in US20260258086A1 (priority 2021, published 2026).

Settings: in vivo; cited from earlier work

## CC[C@H](C)[C@@H]1NC(=O)CNC(=O)[C@@H]2Cc3c([nH]c4cc(O)ccc34)[S@+]([O-])CC(NC(=O)CNC1=O)C(=O)N[C@@H](CC(N)=O)C(=O)N1C[C@H](O)C[C@H]1C(=O)N[C@@H]([C@@H](C)[C@@H](O)CO)C(=O)N2 [α-amanitin]
  toxicity: 0.05 to 0.1 mg/kg
